The values below come from PubChem BioAssay (NCI).

Some test systems named below: M14 melanoma; KM12 colon; A549 NSCLC; OVCAR-5 ovarian; NCI/ADR-RES ovarian; ACHN renal; SK-MEL-28 melanoma; EKVX NSCLC; CAKI-1 renal; DU-145 prostate; SF-539 CNS; SNB-19 CNS; HL-60(TB) leukemia.
What all share (test): DTP human tumour cell line panel, 48 h

Converted amounts (≈) assume the structure as drawn.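 A five-concentration, 48-hour dose response in 96-well plates underlies each endpoint, interpolated linearly between surrounding concentrations. GI50 = concentration required for 50% inhibition of growth. The concentration for full growth arrest is given as TGI.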

A word on the TGI: it is the concentration at which net growth stops. Consider `c1ccc(C2=NN2c2ccccc2)cc1`, for which the TGI with M14 melanoma, with KM12 colon, in the assay on A549 NSCLC, in the assay on OVCAR-5 ovarian, with NCI/ADR-RES ovarian and with ACHN renal was greater than 100 µM throughout. The concentration for total growth inhibition (TGI) with SK-MEL-28 melanoma, with EKVX NSCLC, with CAKI-1 renal, in the assay with DU-145 prostate, in the assay with SF-539 CNS and with SNB-19 CNS was greater than 100 µM in each case.

In the case of `CC1(C)OCC(CO)(CO)CO1`, the concentration for total growth inhibition (TGI) in the assay on M14 melanoma, in the assay on KM12 colon, in the assay with A549 NSCLC, in the assay on NCI/ADR-RES ovarian, in the assay on ACHN renal and in the assay on SK-MEL-28 melanoma was greater than 100 µM throughout. Also, the TGI in the assay on HL-60(TB) leukemia, with DU-145 prostate and in the assay on SNB-19 CNS was greater than 100 µM each time.

As for `O=Cc1cn(CCCCCCCCn2cc(C=O)c3ccccc32)c2ccccc12`, the TGI in the assay on M14 melanoma, with KM12 colon, in the assay with A549 NSCLC, in the assay with OVCAR-5 ovarian, in the assay on NCI/ADR-RES ovarian and in the assay on ACHN renal was greater than 10 µM in each case. Further, the concentration for total growth inhibition (TGI) with SK-MEL-28 melanoma, with EKVX NSCLC, in the assay with CAKI-1 renal, in the assay with HL-60(TB) leukemia, with DU-145 prostate and with SF-539 CNS was greater than 10 µM each time. In addition, the TGI with SNB-19 CNS is greater than 10 µM.

Turning to `O=C=C=P(c1ccccc1)(c1ccccc1)c1ccccc1`, the TGI is greater than 100 µM in the assay with M14 melanoma; greater than 100 µM in the assay on KM12 colon; greater than 100 µM in the assay with A549 NSCLC; 92.8 µM in the assay with OVCAR-5 ovarian; greater than 100 µM with ACHN renal; greater than 100 µM in the assay on SK-MEL-28 melanoma. Besides, the TGI in the assay with EKVX NSCLC was greater than 100 µM; in the assay on CAKI-1 renal it was greater than 100 µM; in the assay on HL-60(TB) leukemia it was 92.4 µM; in the assay with SF-539 CNS it was greater than 100 µM; with SNB-19 CNS, greater than 100 µM.

The GI50 is the concentration that inhibits growth by half. With `Cc1nc2nc(C)n(CCN3CCOCC3)c(=O)c2c(-c2cccc([N+](=O)[O-])c2)c1C(=O)CCCCCCCCCCN1CCC(c2ccccc2)(c2ccccc2)CC1`, the GI50 in the assay on KM12 colon is 2.43 µg/mL (≈ 2.99 µM); in the assay on A549 NSCLC, 2.38 µg/mL (≈ 2.93 µM); with OVCAR-5 ovarian, 2.07 µg/mL (≈ 2.55 µM); in the assay with SK-MEL-28 melanoma, 2.26 µg/mL (≈ 2.78 µM); in the assay with DU-145 prostate, 2.51 µg/mL (≈ 3.09 µM); in the assay with SNB-19 CNS, 2.28 µg/mL (≈ 2.8 µM). The TGI turned out to be 4.46 µg/mL with KM12 colon; 5.24 µg/mL in the assay on A549 NSCLC; 4.03 µg/mL in the assay on OVCAR-5 ovarian; 4.34 µg/mL with SK-MEL-28 melanoma; 4.56 µg/mL in the assay with DU-145 prostate; 4.3 µg/mL in the assay with SNB-19 CNS.
